{"source": "paper PMC9307983", "about": "(Acta Naturae, 2022)", "key": {"MGL, Ser339Ala": {"molecular_target": "MGL, Ser339Ala (Citrobacter freundii, UniProt Q84AR1, S339A)", "assay": "biochemical", "assay_type": "biochemical", "description": "The kinetic parameters of the γ- and β-elimination reactions were determined at 30°C in the conjugate reaction with HOHxoDH or LDH based on a decrease in NADH absorbance at 340 nm (Δε = 6,220 M^–1cm^–1). The reaction mixtures contained a 100-mM potassium phosphate buffer, pH 8.0, 0.1 mM PLP, 1 mM DTT, 0.2 mM NADH, 70 μg HOHxoDH or 10 U LDH, and variable amounts of the substrate in a total volume of 1 mL. The reaction was initiated by the addition of 10 μg of the enzyme.\nThe kinetic parameters were calculated according to the Michaelis–Menten equation using the EnzFitter software. In the calculations, an enzyme subunit molecular weight of 43 kDa was used. The inhibition constants were also determined using the EnzFitter software."}, "Ser339Ala MGL": {"molecular_target": "Ser339Ala MGL (Citrobacter freundii, UniProt Q84AR1, S339A)", "assay": "coenzyme (PLP) dissociation constant by ultrafiltration, Ser339Ala MGL apoenzyme", "assay_type": "binding", "settings": "mutant enzyme, pH 8.0, 30°C, Scatchard coordinates", "description": "The apoenzyme and holoenzyme were prepared in a 50-mM potassium phosphate buffer, pH 8.0, containing 1 mM DTT and 1 mM EDTA. The holoenzyme was prepared by adding a 50-fold molar excess of PLP. The mixture was incubated at 25°C for 1 h. The excess PLP was removed by dialysis. The apoenzyme was prepared by adding a 100-fold molar excess of DL-penicillamine to the sample [42]. The mixture was incubated at 25°C for 1 h. DL-Penicillamine was removed by dialysis. The procedure was repeated until the enzyme activity decreased to 1% of the initial activity. The PLP content in the sample was determined in 100 mM NaOH using the molar extinction coefficient of PLP at 390 nm (ε = 6,600 M^–1cm^–1 [43]).\nThe PLP dissociation constant was determined by ultrafiltration. Varying amounts of PLP (in a range of 5 × 10^–3 to 1.2 × 10^–1 mM) were added to the 8 × 10^–3 mM apoenzyme in a 50-mM potassium phosphate buffer, pH 8.0, containing 1 mM DTT and 1 mM EDTA. After incubation at 30°C for 30 min, free PLP was separated by centrifugation in a Centricon-30 microconcentrator (Amicon, United States) at 5,000 rpm and 4°C for 5 min. The PLP content in each sample was determined in 100 mM NaOH. The data were processed in Scatchard coordinates."}, "CSCC[C@H](N)C(=O)O": {"system": "CSCC[C@H](N)C(=O)O", "assay": "purified protein, by the assay type", "settings": "other: Ser339Ala MGL, 30°C, pH 8.0, coupled with HOHxoDH or LDH"}}, "data": [{"compound": "C[C@H](N)C(=O)O", "note": "[L-Ala, L-alanine]", "values": [{"measurement": "Ki", "setting": "MGL, Ser339Ala", "result": "1250 ± 320", "unit": "µM"}]}, {"compound": "Cc1ncc(COP(=O)(O)O)c(C=O)c1O", "note": "[PLP, pyridoxal 5’-phosphate]", "values": [{"measurement": "Kd", "setting": "Ser339Ala MGL", "result": 1.01, "unit": "µM"}]}, {"compound": "MGL, Ser339Ala (Citrobacter freundii; S339A)", "values": [{"measurement": "Km", "setting": "CSCC[C@H](N)C(=O)O", "result": "1840 ± 150", "unit": "µM"}, {"measurement": "kcat", "setting": "CSCC[C@H](N)C(=O)O", "result": 0.21, "unit": "s⁻¹"}]}]}
